# In patent publication US20090111810A1, “SUBSTITUTED PYRIMIDINE-5-CARBOXAMIDE AND 5-CARBOXYLIC ESTER KINASE INHIBITORS” (priority 2007, published 2009):
# Key:
# [1] = target: T1, HER-2 kinase (GST-HIS6-Thrombin fusion, amino acids 679 to 1255 of HER-2) (Homo sapiens, UniProt P04626); test: HER-2 Kinase Assay; type: biochemical; settings: for inhibition at 100 µM: test concentration of 100 μM, read-out: HER2 % inhibition; for IC50: read-out: HER2 IC50
# T1 construct: HIS6-Thrombin site (N); purchased Proqinase (Freiburg, Germany)
# T1 sequence (P04626 679-1255): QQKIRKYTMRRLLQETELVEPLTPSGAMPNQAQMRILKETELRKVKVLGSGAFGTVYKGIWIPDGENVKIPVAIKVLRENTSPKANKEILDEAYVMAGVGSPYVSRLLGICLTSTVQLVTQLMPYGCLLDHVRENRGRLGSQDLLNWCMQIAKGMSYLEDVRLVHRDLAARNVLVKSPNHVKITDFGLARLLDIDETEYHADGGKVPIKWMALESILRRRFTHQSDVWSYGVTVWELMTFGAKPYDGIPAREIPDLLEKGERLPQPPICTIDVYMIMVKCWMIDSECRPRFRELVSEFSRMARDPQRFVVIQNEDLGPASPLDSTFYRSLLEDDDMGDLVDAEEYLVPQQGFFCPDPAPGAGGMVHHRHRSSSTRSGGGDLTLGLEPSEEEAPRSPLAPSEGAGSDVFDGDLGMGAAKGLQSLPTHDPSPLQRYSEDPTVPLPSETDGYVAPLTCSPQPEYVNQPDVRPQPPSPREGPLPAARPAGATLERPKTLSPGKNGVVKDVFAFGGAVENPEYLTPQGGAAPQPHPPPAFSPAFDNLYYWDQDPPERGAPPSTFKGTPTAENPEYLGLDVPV
# Protocol: The HER-2 kinase used was purified at Proqinase (Freiburg, Germany) from a construct that consisted of a fusion of GST (Glutathione-S-Transferase), HIS6-Thrombin and the nucleotides encoding amino acids 679 to 1255 of HER-2 (Accession Number M11730).
# A mixture of a 10× kinase reaction buffer (600 mM Hepes at pH 7.5, 30 mM Magnesium Chloride, 0.03 mM Sodium Vanadate and 500 μg/mL PEG 20,000), DTT (1.2 mM final from a 10 mM stock), ATP (1 μM from a 10 mM stock), biotinylated polyGluTyr (1.5 ng/μL final from stock of 1 μg/μL) prepared by Upstate Biotechnologies, Lake Placid, N.Y.), Manganese Chloride (3 mM final from a 1 M stock), γ-^33P-ATP (10 μCi/μL stock) and water (70 μL/well) was added to each well of a Streptavidin Flashplate (Cat. # SMP103, NEN, Boston, Mass.).
# Test compound stock (1 μL) was added to the appropriate wells. Diluted GSTHER2 kinase (6.7 ng/μL diluted into 50 mM Tris-HCl at pH 8.0 and 0.1% bovine serum albumin) (30 μL) was added (total volume of 200 ng/well) to initiate the reactions.
# The reaction plates were incubated at 30° C. for 1 hr. The reaction was terminated by aspirating the reaction mixture from the plate wells and washing the wells three times with a 1× PBS stop buffer (300 μL) and 100 mM EDTA. After the final wash, the same stop buffer (200 μL) was again added to the wells. The plates were then sealed and read on the TopCount scintillation counter.
# Test compounds were assayed in triplicate at 8 concentrations at one-log dilutions starting at 100 μM. A maximum and minimum signal for the assay was determined on each plate. The percent inhibition of a test compound was calculated according to the formula: […]
# (§1) For a series of test concentrations, the IC50 was derived by graphing percent inhibition against the log of the concentrations tested for a given compound.
# [2] = tested on: HeLa cervical adenocarcinoma; test: Inhibition of in vitro cell proliferation (14C-thymidine incorporation), HeLa; type: cell-based; settings: Homo sapiens, HeLa cells
# Protocol: (§2) The ability of a test compound to inhibit the proliferation of cell growth was determined by measuring incorporation of ^14C-labelled thymidine into newly synthesized DNA within the cells. This method was used on American Type Culture Collection (ATCC, Virginia) cell lines derived from carcinomas originating from several tissues such as HeLa cervical adenocarcinoma (ATCC Cat. #CCL-2), HCT-116 colon carcinoma (ATCC Cat. #CCL-247), and A375 malignant melanoma (ATCC Cat. #CRL-1619).
# (§3) The carcinoma cells are trypsinized and counted. The cells (3000-8000 count) are added to each well of a 96-well CytoStar tissue culture treated scintillating microplate (Amersham #RPNQ0160) in complete medium (100 μL) and the plate is then incubated in complete medium for 24 hrs at 37° C. in an inert atmosphere containing 5% CO2.
# (§4) Test compound (1 μL) in 100% DMSO is added to the plate test-wells with DMSO only added to control-wells. The plate is incubated in complete medium for a second 24 hr period at 37° C. in an atmosphere containing 5% CO2.
# (§5) An aliquot of a solution of Methyl ^14C-thymidine (56 mC/mmol) (NEN #NEC568 or Amersham #CFA532) in complete medium (20 uL to provide 0.2 μCi/well) is then added to each well and the plate is incubated for a third 24 hr period at 37° C. in an atmosphere containing 5% CO2.
# (§6) The plate contents are then discarded, the plate is washed twice with PBS (200 μL) and then PBS (200 μL) is added to each well. The plate is sealed and the degree of methyl ^14C-thymidine incorporation is quantified on a Packard Top Count.
# A375 malignant melanoma = test: Inhibition of in vitro cell proliferation (14C-thymidine incorporation), A375; type: cell-based; settings: Homo sapiens, A-375, A375 cells
# Protocol: as §2, §3, §4, §5, §6
# HCT-116 colon carcinoma = test: Inhibition of in vitro cell proliferation (14C-thymidine incorporation), HCT116; type: cell-based; settings: Homo sapiens, HCT116 cells
# Protocol: as §2, §3, §4, §5, §6
# [3] = target: T2, EGFR kinase (GST fusion of intracellular portion of EGFR, NM_005228) (Homo sapiens, UniProt P00533); test: EGFR Kinase Assay; type: biochemical; settings: for inhibition at 2 µM: test concentration of 2 μM
# T2 construct: The intracellular portion of EGFR started at nucleotide 2189 (corresponding to amino acid 667) and ended at the termination codon; made in house; host or cells: Sf9 insect cells (baculovirus)
# T2 sequence (P00533 669-1210 limits assumed): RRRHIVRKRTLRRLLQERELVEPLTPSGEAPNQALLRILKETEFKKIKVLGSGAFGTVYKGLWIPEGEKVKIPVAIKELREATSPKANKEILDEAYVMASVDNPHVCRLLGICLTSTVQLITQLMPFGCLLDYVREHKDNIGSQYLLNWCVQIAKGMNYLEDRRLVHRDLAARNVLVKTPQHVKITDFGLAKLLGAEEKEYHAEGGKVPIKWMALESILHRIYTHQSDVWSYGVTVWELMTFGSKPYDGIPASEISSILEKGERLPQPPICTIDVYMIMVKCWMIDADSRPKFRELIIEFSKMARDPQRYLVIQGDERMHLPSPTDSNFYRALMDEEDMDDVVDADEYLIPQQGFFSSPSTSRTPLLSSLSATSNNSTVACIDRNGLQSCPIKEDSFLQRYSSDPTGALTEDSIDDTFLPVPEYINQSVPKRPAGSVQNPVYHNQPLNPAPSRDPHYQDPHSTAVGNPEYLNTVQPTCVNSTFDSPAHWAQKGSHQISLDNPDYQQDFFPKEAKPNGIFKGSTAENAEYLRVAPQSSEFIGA
# Excerpt: The portion was PCR amplified with primers that added the lambda attB sequences to each end, recombined into an entry vector, then into a (GST destination vector (as described in Gateway Technologies Manual by Invitrogen Corporation, Carlsbad, Calif.).
# The destination vector was recombined in the DH10BAC strain of bacteria to produce a bacmid. The bacmid was transfected into Sf 9 cells and the supernatant containing the baculovirus was collected. The GSTEGFR protein was purified using large cultures of Sf 9 cells infected with stock virus. After an appropriate period of time, the cells were collected and lysed. The GSTEGFR was then purified from the lysate on Glutathione-Sepharose columns (as described by Amersham Biosciences, Buckinghamshire, United Kingdom).
# The free biotin was separated from the biotinylated polyGluTyr on a gel filtration column.
# A mixture of a 10× kinase buffer (500 mM Tris at pH 8.0, 100 mM Magnesium Chloride and 1 mM Sodium Vanadate), DTT (1 mM final from 500 mM stock), ATP (5 μM final from […]), biotinylated polyGluTyr (10 μg/μL stock), γ-^33P ATP (10 μCi/μL stock) and water was added to each well (90 μL/well) of a Streptavidin Flashplate (Perkin Elmer, Wellesley, Mass.).
# Test compound in 100% DMSO (2 μL) was added to the appropriate wells. Diluted GSTEGFR (1:300 dilution in 50 mM Tris at pH 8.0 and 0.1% bovine serum albumin) (10 μL) was added to the wells to initiate the reactions.
# The plates were incubated at 30° C. for 1 hr with shaking, The reacted contents were removed and the plates were sequentially washed three times with a 1×PBS stop buffer (300 μL without Magnesium and Calcium) and 100 mM EDTA. After the final wash, the same stop buffer (200 μL) was added to the wells. The plates were then sealed and read on the TopCount scintillation counter.
# Test compounds were assayed in triplicate at 16 concentrations at half-log dilutions starting at 200 μM. A maximum and minimum signal for the assay was determined on each plate. The percent inhibition of a test compound was calculated according to the formula
# as §1
SMILES,inhibition at 100 µM [1] [%],IC50 [2] [µM],IC50 (A375 malignant melanoma) [µM],IC50 (HCT-116 colon carcinoma) [µM],IC50 [1] [µM],inhibition at 2 µM [3] [%],IC50 [3] [µM]
"COC(=O)c1c(N)ncnc1Nc1ccc(OCc2ccccc2)c(Cl)c1 [Cpd 1, 4-amino-6-(4-benzyloxy-3-chloro-phenylamino)-pyrimidine-5-carboxylic acid methyl ester]",92,1.9,1,3,,,
"Nc1ncnc(Nc2ccc(OCc3ccccc3)c(Cl)c2)c1C(=O)O [Cpd 2, 4-amino-6-(4-benzyloxy-3-chloro-phenylamino)-pyrimidine-5-carboxylic acid]",,> 10,> 10,> 10,0.78,,
"Nc1ncnc(Nc2ccc(OCc3ccccc3)c(Cl)c2)c1C(=O)OCCN1CCOCC1 [Cpd 3, 4-amino-6-(4-benzyloxy-3-chloro-phenylamino)-pyrimidine-5-carboxylic acid 2-morpholin-4-yl-ethyl ester]",,> 10,5.1,,1.38,,
"Nc1ncnc(Nc2ccc(OCc3ccccc3)c(Cl)c2)c1C(=O)OCc1cccc(F)c1 [Cpd 4, 4-amino-6-(4-benzyloxy-3-chloro-phenylamino)-pyrimidine-5-carboxylic acid 3-fluoro-benzyl ester]",21,> 10,> 10,> 10,,34,
"CCN(CC)C(=O)c1c(N)ncnc1Nc1ccc(OCc2ccccc2)c(Cl)c1 [Cpd 5, 4-amino-6-(4-benzyloxy-3-chloro-phenylamino)-pyrimidine-5-carboxylic acid diethylamide]",39,> 10,> 10,> 10,,36,
"COCCNC(=O)c1c(N)ncnc1Nc1ccc(OCc2ccccc2)c(Cl)c1 [Cpd 6, 4-amino-6-(4-benzyloxy-3-chloro-phenylamino)-pyrimidine-5-carboxylic acid (2-methoxy-ethyl)-amide]",33,> 100,> 100,> 100,,37,
"Nc1ncnc(Nc2ccc(OCc3ccccc3)c(Cl)c2)c1C(=O)NCCN1CCCCC1 [Cpd 7, 4-amino-6-(4-benzyloxy-3-chloro-phenylamino)-pyrimidine-5-carboxylic acid (2-piperidin-1-yl-ethyl)-amide]",,34,> 1,> 10,10,42,

# Second part, the compound after the results:
inhibition at 100 µM [1] [%],IC50 [2] [µM],IC50 (A375 malignant melanoma) [µM],IC50 (HCT-116 colon carcinoma) [µM],IC50 [1] [µM],inhibition at 2 µM [3] [%],IC50 [3] [µM],SMILES
82,> 10,> 10,> 10,,35,,"Nc1ncnc(Nc2ccc(OCc3ccccc3)c(Cl)c2)c1C(=O)NCCN1CCOCC1 [Cpd 8, 4-amino-6-(4-benzyloxy-3-chloro-phenylamino)-pyrimidine-5-carboxylic acid (2-morpholin-4-yl-ethyl)-amide]"
4,> 100,> 100,> 100,,28,,"COc1ccc(CCNC(=O)c2c(N)ncnc2Nc2ccc(OCc3ccccc3)c(Cl)c2)cc1 [Cpd 9, 4-amino-6-(4-benzyloxy-3-chloro-phenylamino)-pyrimidine-5-carboxylic acid [2-(4-methoxy-phenyl)-ethyl]-amide]"
12,> 100,> 100,> 100,,,,"Nc1ncnc(Nc2ccc(OCc3ccccc3)c(Cl)c2)c1C(=O)Nc1ccccc1 [Cpd 10, 4-amino-6-(4-benzyloxy-3-chloro-phenylamino)-pyrimidine-5-carboxylic acid phenylamide]"
0,> 100,> 100,> 100,,36,,"COc1ccc(NC(=O)c2c(N)ncnc2Nc2ccc(OCc3ccccc3)c(Cl)c2)cc1 [Cpd 11, 4-amino-6-(4-benzyloxy-3-chloro-phenylamino)-pyrimidine-5-carboxylic acid (4-methoxy-phenyl)-amide]"
,3,1.7,3.4,0.15,,,"NNC(=O)c1c(N)ncnc1Nc1ccc(OCc2ccccc2)c(Cl)c1 [Cpd 12, 4-amino-6-(4-benzyloxy-3-chloro-phenylamino)-pyrimidine-5-carboxylic acid hydrazide]"
,> 100,> 100,> 100,5.7,,0.62,"Nc1ncnc(Nc2ccc(OCc3ccccc3)c(Cl)c2)c1C(=O)NNC(=O)CCN1CCOCC1 [Cpd 13, 4-amino-6-(4-benzyloxy-3-chloro-phenylamino)-pyrimidine-5-carboxylic acid N′-(3-morpholin-4-yl-propionyl)-hydrazide]"
63,,,,,,,"Nc1ncnc(Nc2ccc(OCc3ccccc3)c(Cl)c2)c1C=O [Cpd 14, 4-amino-6-(4-benzyloxy-3-chloro-phenylamino)-pyrimidine-5-carboxaldehyde]"
